Assay results reported in BindingDB's records for doi:10.1021/jm048962u (The Burnham Institute, 2005).

Biological target: RAC-alpha serine/threonine-protein kinase (Homo sapiens, UniProt P31749)
Assay: Z-LYTE Kinase Assy
Settings: pH 7.5; 25 °C
Description: The Z-LYTE assay (Invitrogen Corporation) employs a FRET-based, coupled-enzyme format and is based on the differential sensitivity of phosphorylated and non-phosphorylated peptides to proteolytic cleavage. A site-specific protease recognizes and cleaves nonphosphorylated peptides. […] Cleavage disrupts FRET between the donor (coumarin) and acceptor (fluorescein) fluorophores on the peptide, whereas uncleaved, phosphorylated peptides maintain FRET. The ratio of donor emission to acceptor emission after excitation of the donor fluorophore at 400 nm, quantitates reaction progress.

Chain of RAC-alpha serine/threonine-protein kinase (P31749 whole entry): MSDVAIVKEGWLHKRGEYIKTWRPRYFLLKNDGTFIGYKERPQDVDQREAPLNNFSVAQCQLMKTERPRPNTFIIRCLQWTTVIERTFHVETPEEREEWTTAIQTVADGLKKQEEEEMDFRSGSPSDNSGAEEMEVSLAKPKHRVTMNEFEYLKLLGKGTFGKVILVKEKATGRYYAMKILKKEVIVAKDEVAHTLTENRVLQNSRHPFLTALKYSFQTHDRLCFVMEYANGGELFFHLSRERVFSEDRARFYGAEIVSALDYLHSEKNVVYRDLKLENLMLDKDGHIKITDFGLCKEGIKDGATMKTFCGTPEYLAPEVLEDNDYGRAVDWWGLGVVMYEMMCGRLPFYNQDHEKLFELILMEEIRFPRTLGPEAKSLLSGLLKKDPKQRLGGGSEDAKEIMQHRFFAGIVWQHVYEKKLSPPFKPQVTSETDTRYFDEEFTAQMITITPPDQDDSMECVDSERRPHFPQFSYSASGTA

| IC50 [nM] | Ki [nM] | SMILES |
| --- | --- | --- |
| 2600 | 1100 | C=c1c(C#N)c2[nH]c(N)c(C#N)c(C)c-2c1=Cc1ccc(-c2ccc(C(=O)O)c(Cl)c2)o1 |
| 60200 |  | C=c1c(C#N)c2[nH]c(N)c(C#N)c(C)c-2c1=Cc1ccc(-c2cccc(C(=O)O)c2)o1 [3-(5-{[(5E)-2-amino-3,7-dicyano-4,6-dimethyl-5H-cyclopenta[b]pyridin-5-ylidene]methyl}furan-2-yl)benzoic acid] |
